Usually IC50 stands for the concentration that gives 50% inhibition. A high value points to weaker potency.

In the experiment the target is Replicase polyprotein 1ab (Severe acute respiratory syndrome coronavirus 2, UniProt P0DTD1). In words: Hit profiling assay with DTT.

`O=C1C=Cc2cc(Br)ccc2C1=O` [Bonaphthone] displayed an IC50 of 90 nM.
With `Cn1sc(=O)n(Cc2ccccc2)c1=O` [4-Benzyl-2-methyl-1,2,4-thiadiazolidine-3,5-dione] the figure was 140 nM; with `CN1CCN(C(c2ccc(C(F)(F)F)cc2)c2ccc3cccnc3c2O)CC1` (configuration not stated), 1340 nM; with `Cc1c(-c2cnccn2)ssc1=S` [OLTIPRAZ], 110 nM.
The compound `COC(=O)CC[C@H](NC(=O)[C@H](CC(=O)OC)NC(=O)OCc1ccccc1)C(=O)N[C@H](C(=O)N[C@@H](CC(=O)OC)C(=O)CF)C(C)C` [US9345789, Z-DEVD-FMK] registered an IC50 of 10 nM.
In turn, `N#CSc1cc(SC#N)c(N)nc1N` [PR-619] yielded an IC50 of 4410 nM.
The result for `CCOC(=O)Cc1ccc(-c2ccccc2)cc1` [Felbinac ethyl] reads 80 nM.

The values are drawn from BindingDB's records for doi:10.1101/2020.12.16.422677 (Fraunhofer Institute for Translational Medicine and …, 2020).
